In paper PMC4797285 (Nucleic Acids Research, 2016):

Tests used:
[1] = system: ribosome on the mRNA (PURExpress in vitro protein synthesis kit); assay: Toe-printing assay; assay type: biochemical; settings: for Position of ribosome stalling in toe-print: 100 μM thiostrepton, 50 μM clindamycin
[2] = system: ribosomes translating 2XErmBL mRNA (RTS 100 E. coli HY Kit); assay: Disome formation assay; assay type: biochemical, Escherichia coli; settings: 20 μM erythromycin, positive control

Compound | Position of ribosome stalling in toe-print [1] | other results
CCC[C@@H]1C[C@@H](C(=O)N[C@@H]([C@H]2O[C@H](SC)[C@H](O)[C@@H](O)[C@H]2O)[C@H](C)Cl)N(C)C1 [clindamycin] | ribosomes accumulated at the AUG codon | 
CC[C@H]1OC(=O)[C@H](C)[C@@H](O[C@H]2C[C@@](C)(OC)[C@@H](O)[C@H](C)O2)[C@H](C)[C@@H](O[C@@H]2O[C@H](C)C[C@H](N(C)C)[C@H]2O)[C@](C)(O)C[C@@H](C)C(=O)[C@H](C)[C@@H](O)[C@]1(C)O [erythromycin] |  | Disome formation (translation arrest) [2]: generating the expected disome peaks
C=C(NC(=O)C(=C)NC(=O)c1csc(C2=N[C@@H]3c4csc(n4)[C@H]4NC(=O)c5csc(n5)[C@H]([C@](C)(O)[C@@H](C)O)NC(=O)[C@H]5CSC(=N5)/C(=C/C)NC(=O)[C@H]([C@@H](C)O)NC(=O)c5csc(n5)[C@]3(CC2)NC(=O)[C@H](C)NC(=O)C(=C)NC(=O)[C@H](C)NC(=O)[C@H]([C@@H](C)CC)N[C@@H]2C=Cc3c([C@H](C)O)cc(nc3[C@H]2O)C(=O)O[C@@H]4C)n1)C(N)=O [thiostrepton] | ribosomes accumulated at the AUG codon | 
RRIRPRPPRLPRPRPR [Bac7(1–16)] |  | Toeprint for ribosomes stalled during initiation ([1]; 100 μM peptide, signal for full-length mRNA became stronger, similar to edeine): became weaker
